Reference: article PMC10573062, “Synthesis, Structural Characterization, Cytotoxicity, and Protein/DNA Binding Properties of Pyridoxylidene-Aminoguanidine-Metal (Fe, Co, Zn, Cu) Complexes” (International Journal of Molecular Sciences, 2023)

Legend:
[1] = system: HCT116 cell lines; design: method as in PMID 30798514; settings: previous study; cited from earlier work
[2] = Qualitative solubility in solvents; format: physicochemical
[3] = system: A2780 ovarian cancer; experiment: MTT viability assay, A2780; format: cell-based, human; settings: 72 h of treatment
Method: (§1) The following cell lines were used in this study: human cell lines (A375 melanoma, MCF-7 breast cancer, HCT116 colorectal carcinoma, and A2780 ovarian cancer. These cell lines were purchased from the American Type Culture Collection (Rockville, MD, USA). The A2780 cells were cultivated in DMEM, while all other cell lines were cultivated in the HEPES-buffered RPMI-1640 medium. The cell culture mediums were supplemented with penicillin (1000 units/mL), streptomycin (100 µg/mL), and 10% inactivated FBS. All cells were cultivated at 37 °C in a humidified atmosphere with 5% CO2.
(§2) Two colorimetric viability assays were applied, namely 3-(4,5-dimethylthiazol-2-yl)-2,5-diphenyl-2H-tetrazolium bromide (MTT) and crystal-violet (CV) (Sigma Aldrich, St. Louis, MO, USA), according to the previous studies. The cells were seeded overnight in 96-well plates: A2780 and MRC-5 8 × 10^3 cells/well, HCT 116 6 × 10^3 cells/well, A375 5 × 10^3 cells/well, and MCF-7 at 10 × 10^3 cells/well [67]. The standard solutions of complexes were prepared in DMSO. All cells were treated with the following concentrations of investigated compounds: 100, 50, 25, 12.5, 6.25, 3.125, and 1.56 µM. After 72 h of treatment, viability assays were conducted. For the CV assay, cells were fixed using 4% paraformaldehyde (PFA) for 20 min at room temperature after being washed once with PBS. Afterward, they were stained with 0.2% CV solution for 25 min. This procedure was followed by washing with double distilled water. The cells were left to dry overnight at room temperature. In the last step, 33% acetic acid was used to dissolve the remaining dye. The other test included incubating cells in MTT solution (0.5 mg L^−1 in cell culture medium) for […] at 37 °C in a humid environment with 5% CO2. After one hour, the MTT solution was discarded, and the formed formazan was dissolved using DMSO. A plate reader (Spectromax, Molecular Devices, San Jose, CA, USA) was utilized for the absorption measurements at 570 and 670 (background) nm. The cell viability was calculated as the percentage compared to untreated cells, and the mean was obtained using a four-parametric logistic function. Each of the three independent experiments was performed in quadruplicate.

[4] = system: HCT116 colorectal carcinoma; experiment: CV (crystal-violet) viability assay, HCT116; format: cell-based, human; settings: 72 h of treatment
Method: as §1, §2

[5] = system: A2780 ovarian cancer; experiment: CV (crystal-violet) viability assay, A2780; format: cell-based, human; settings: 72 h of treatment
Method: as §1, §2

[6] = system: MCF-7 breast cancer; experiment: MTT viability assay, MCF-7; format: cell-based, human; settings: MCF-7, MTT, 72 h of treatment
Method: as §1, §2

[7] = system: MCF-7 breast cancer; experiment: CV (crystal-violet) viability assay, MCF-7; format: cell-based, human; settings: MCF-7, CV, 72 h of treatment
Method: as §1, §2

[8] = molecular target: T1, bovine serum albumin (BSA) (Bos taurus, UniProt P02769); experiment: Spectrofluorometric titration of BSA (fluorescence quenching, double log Stern–Volmer, van't Hoff); format: binding; settings: for ΔHb / ΔSb: van't Hoff over three temperatures
T1 construct: purchased
Method: (§3) The protein binding affinity of obtained compounds was analyzed by the spectrofluorometric titration of BSA and HSA solution by the solution containing obtained compounds. The mixture was irradiated by light with a wavelength of 295 (BSA) and 280 nm (HSA). Both proteins contain fluorescent amino acids within active pockets, and the binding process can be monitored through the change in intensity and position of the emitted light maxima. The fluorescent emission depends on the chemical environment of amino acids. The measurements for each complex were repeated at three temperatures to allow the determination of the thermodynamic parameters of binding.
(§4) The spectrofluorometric measurements were used to investigate the binding process of obtained compounds towards bovine serum albumin (BSA) and human serum albumin (HSA) on the Cary Eclipse MY2048CH03 instrument. The scan rate was 600 nm min^−1, and both slits were 5 nm. The excitation wavelengths were 295 nm and 280 nm for BSA and HSA, respectively. These energies are characteristics of the protein structure’s tryptophan and other fluorescent amino acid residues. The emission spectra were recorded between 310 and 500 nm. The concentration of proteins was held constant at 5 × 10^−6 M in […] phosphate buffer saline (pH = 7.4). The concentration of complexes changed from 1 to 10 × 10^−6 M, and the emission spectrum was recorded two minutes after the addition of compounds. The data were analyzed by the double log Stern–Volmer quenching equation (Equation (2)):(2) logI0−I/I=logKb+nlogQ
In the previous equation, I0 and I are the fluorescent emission intensities of BSA/HSA without and with added metal complexes, respectively; Kb is the binding constant; n is the number of binding places; and [Q] is the concentration of quenchers (metal complexes). […]

[9] = molecular target: T2, human serum albumin (HSA) (Homo sapiens, UniProt P02768); experiment: Spectrofluorometric titration of HSA (fluorescence quenching, double log Stern–Volmer, van't Hoff); format: binding; settings: for ΔHb / ΔSb: van't Hoff over three temperatures
T2 construct: purchased
Method: as §3
The binding affinity of obtained complexes was also examined towards HSA as a transport protein relevant to the human body. The temperature range was changed to reflect better temperatures common for humans (32–42 °C). The representative example of the HAS fluorescence measurements is shown in Figure 9, along with van’t Hoff’s plot. The decrease in the fluorescence intensity emission was also dependent on the concentration of complexes. On average, the binding constants were similar to the ones calculated for BSA. […] High correlation coefficients, between 0.990 and 0.998, were calculated for the dependency described by Equation (2). The number of binding places is 1, proving that the same type of complexes were formed between investigated compounds and HAS as previously shown for BSA.
as §4
In the previous equation, I0 and I are the fluorescent emission intensities of BSA/HSA without and with added metal complexes, respectively; Kb is the binding constant; n is the number of binding places; and [Q] is the concentration of quenchers (metal complexes).
The changes in enthalpy and entropy of the binding process were determined from the vant’t Hoff equation (Equation (3)) following the measurements at three temperatures (27, 32, and 37 °C):(3) lnKb=−∆Hb/RT+∆Sb/R

[10] = system: HCT116 colorectal carcinoma; experiment: MTT viability assay, HCT116; format: cell-based, human; settings: 72 h of treatment
Method: as §1, §2

[11] = system: A375 melanoma; experiment: MTT viability assay, A375; format: cell-based, human; settings: 72 h of treatment
Method: as §1
as §2, with “After one hour, the MTT solution was discarded, and the formed formazan was dissolved using DMSO.” left out, “Each of the three independent experiments was performed in quadruplicate.” left out

[12] = system: A375 melanoma; experiment: CV (crystal-violet) viability assay, A375; format: cell-based, human; settings: 72 h of treatment
Method: as §1
as §2, with “After one hour, the MTT solution was discarded, and the formed formazan was dissolved using DMSO.” left out, “Each of the three independent experiments was performed in quadruplicate.” left out

[13] = in chloroform, dimethylsulfoxide, dimethylformamide, acetone, and acetonitrile
[14] = in methanol, ethanol, phosphate buffer saline, and water

T1 sequence (P02769 25-607): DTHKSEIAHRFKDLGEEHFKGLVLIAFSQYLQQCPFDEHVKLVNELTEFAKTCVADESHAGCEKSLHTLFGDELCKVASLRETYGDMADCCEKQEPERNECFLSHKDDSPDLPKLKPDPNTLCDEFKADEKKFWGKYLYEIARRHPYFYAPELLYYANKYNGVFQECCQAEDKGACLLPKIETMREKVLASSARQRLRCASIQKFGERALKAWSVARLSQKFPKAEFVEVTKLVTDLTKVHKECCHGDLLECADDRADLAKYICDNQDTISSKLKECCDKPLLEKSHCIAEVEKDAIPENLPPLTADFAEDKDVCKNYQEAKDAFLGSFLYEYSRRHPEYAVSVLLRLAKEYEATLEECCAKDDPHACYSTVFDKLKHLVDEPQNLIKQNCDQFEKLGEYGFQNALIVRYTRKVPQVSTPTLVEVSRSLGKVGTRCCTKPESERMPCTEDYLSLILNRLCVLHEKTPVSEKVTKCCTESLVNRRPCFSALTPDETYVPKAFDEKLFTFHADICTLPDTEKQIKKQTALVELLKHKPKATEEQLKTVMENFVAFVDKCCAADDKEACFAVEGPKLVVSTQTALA
T2 sequence (P02768 25-609): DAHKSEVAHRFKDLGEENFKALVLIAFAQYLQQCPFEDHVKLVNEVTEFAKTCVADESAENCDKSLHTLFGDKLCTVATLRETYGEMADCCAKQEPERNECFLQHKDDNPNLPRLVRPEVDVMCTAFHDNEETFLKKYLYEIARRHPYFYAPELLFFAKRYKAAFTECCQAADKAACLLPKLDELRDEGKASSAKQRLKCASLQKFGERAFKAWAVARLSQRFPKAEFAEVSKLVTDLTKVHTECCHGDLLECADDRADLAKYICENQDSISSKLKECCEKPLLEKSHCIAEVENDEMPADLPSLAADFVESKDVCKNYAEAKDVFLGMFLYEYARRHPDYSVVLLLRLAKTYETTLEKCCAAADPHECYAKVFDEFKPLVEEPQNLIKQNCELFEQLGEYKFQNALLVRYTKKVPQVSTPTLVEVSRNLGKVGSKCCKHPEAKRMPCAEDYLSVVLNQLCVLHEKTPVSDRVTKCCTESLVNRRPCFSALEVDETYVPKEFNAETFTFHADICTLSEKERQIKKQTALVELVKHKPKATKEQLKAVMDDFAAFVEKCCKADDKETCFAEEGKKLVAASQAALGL

| Molecule | solubility ([2]; in diethyl ether and toluene) | IC50 [3] [µM] | IC50 [4] [µM] | solubility [2, 13] | solubility [2, 14] | IC50 [5] [µM] | IC50 [6] [µM] | IC50 [7] [µM] | Kb (binding constant) ([8]; 27 °C) [M⁻¹] | n (number of binding places) ([8]; 27 °C) | ΔGb ([8]; 27 °C) [kcal/mol] | Kb (binding constant) ([8]; 32 °C) [M⁻¹] | n (number of binding places) ([8]; 32 °C) | ΔGb ([8]; 32 °C) [kcal/mol] | Kb (binding constant) ([8]; 35 °C) [M⁻¹] | n (number of binding places) ([8]; 35 °C) | ΔGb ([8]; 35 °C) [kcal/mol] | ΔHb [8] [kcal/mol] | ΔSb [8] [J mol^−1 K^−1] | n (number of binding places) ([9]; 32 °C) | other results |
| --- | --- | --- | --- | --- | --- | --- | --- | --- | --- | --- | --- | --- | --- | --- | --- | --- | --- | --- | --- | --- | --- |
| O=S(=O)([O-])[O-].[Cu+2] [CuSO4] | – | – | – | – | – | – | – | – | – | – | – | – | – | – | – | – | – | – | – | – | activity towards HCT116 cell line [1]: almost completely inactive |
| Cc1ncc(CO)c(/C=N/N=C(N)N)c1O [PLAG, Pyridoxylidene-aminoguanidine] | insoluble | – | – | – | – | – | – | – | – | – | – | – | – | – | – | – | – | – | – | – | solubility ([2]; in MeOH and DMF): soluble; solubility ([2]; in methanol, ethanol, and water): moderately soluble |
| Cu(PLAG)(NCS)2 [Cu-PLAG] | insoluble | 32.5 ± 2.6 | 97.4 ± 3.7 | soluble | moderately soluble | 38.5 ± 2.1 | 48.3 ± 1.5 | 65.4 ± 4.8 | 9630 | 1.13 | -5.382 | 89700 | 1.10 | -7.087 | 1.82e+06 | 0.98 | -8.788 | 96.793 | 1425.02 | 0.91 | ΔGb ([9]; 32 °C): -5.37 kcal/mol; n (number of binding places) ([9]; 37 °C): 0.90; ΔGb ([9]; 37 °C): -5.961 kcal/mol; n (number of binding places) ([9]; 42 °C): 0.98; ΔGb ([9]; 42 °C): -6.554 kcal/mol; ΔHb [9]: 30.727 kcal/mol; ΔSb [9]: 495.17 J mol^−1 K^−1; IC50 [10]: 81.5 ± 0.1 µM |
| [Co(PLAG)2]SO4^.2H2O [Co-PLAG] | insoluble | > 100 | > 100 | soluble | moderately soluble | > 100 | > 100 | > 100 | 18600 | 0.97 | -5.858 | 20400 | 0.98 | -6.021 | 22900 | 0.96 | -6.181 | 3.826 | 135.08 | 1.05 | IC50 [11]: > 100 µM; IC50 [12]: > 100 µM; ΔGb ([9]; 32 °C): -5.578 kcal/mol; n (number of binding places) ([9]; 37 °C): 1.08; ΔGb ([9]; 37 °C): -6.761 kcal/mol; n (number of binding places) ([9]; 42 °C): 1.16; ΔGb ([9]; 42 °C): -7.945 kcal/mol; ΔHb [9]: 66.597 kcal/mol; ΔSb [9]: 990.11 J mol^−1 K^−1; IC50 [10]: > 100 µM |
| [Fe(PLAG)2]SO4^.2H2O [Fe-PLAG] | insoluble | > 100 | > 100 | soluble | moderately soluble | > 100 | > 100 | > 100 | 31800 | 1.12 | -6.171 | 83200 | 1.10 | -6.888 | 234000 | 1.04 | -7.605 | 36.898 | 600.66 | 1.09 | IC50 [11]: > 100 µM; IC50 [12]: > 100 µM; ΔGb ([9]; 32 °C): -5.081 kcal/mol; n (number of binding places) ([9]; 37 °C): 0.90; ΔGb ([9]; 37 °C): -6.647 kcal/mol; n (number of binding places) ([9]; 42 °C): 1.12; ΔGb ([9]; 42 °C): -8.212 kcal/mol; ΔHb [9]: 90.411 kcal/mol; ΔSb [9]: 1309.95 J mol^−1 K^−1; IC50 [10]: > 100 µM |
| [Zn(PLAG)(SO4)(H2O)]^.H2O [Zn-PLAG] | insoluble | > 100 | > 100 | soluble | moderately soluble | > 100 | > 100 | > 100 | 58000 | 1.13 | -6.561 | 124000 | 1.09 | -7.065 | 208000 | 1.03 | -7.567 | 23.61 | 420.77 | 1.11 | IC50 [11]: > 100 µM; IC50 [12]: > 100 µM; ΔGb ([9]; 32 °C): -6.848 kcal/mol; n (number of binding places) ([9]; 37 °C): 0.99; ΔGb ([9]; 37 °C): -6.898 kcal/mol; n (number of binding places) ([9]; 42 °C): 0.95; ΔGb ([9]; 42 °C): -6.948 kcal/mol; IC50 [10]: > 100 µM |
